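Five compound concentrations were applied to cells in 96-well plates for 48 hours; endpoints were derived by simple linear interpolation of the resulting dose-response curve. TGI: total growth inhibition.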
Legend:
Test in all cases: NCI tumour cell line growth inhibition, 48 h
NCI/ADR-RES ovarian = test system: NCI/ADR-RES ovarian
HT29 colon = test system: HT29 colon
HOP-62 NSCLC = test system: HOP-62 NSCLC
HCT-15 colon = test system: HCT-15 colon
HCT-116 colon = test system: HCT-116 colon
CCRF-CEM leukemia = test system: CCRF-CEM leukemia
MDA-N = test system: MDA-N
A498 renal = test system: A498 renal
SF-539 CNS = test system: SF-539 CNS
LOX IMVI melanoma = test system: LOX IMVI melanoma
NCI-H23 lung = test system: NCI-H23 lung
COLO 205 colon = test system: COLO 205 colon
T-47D breast = test system: T-47D breast
DU-145 prostate = test system: DU-145 prostate
SF-268 CNS = test system: SF-268 CNS
OVCAR-8 ovarian = test system: OVCAR-8 ovarian
EKVX NSCLC = test system: EKVX NSCLC
SF-295 CNS = test system: SF-295 CNS
SNB-75 CNS = test system: SNB-75 CNS
SK-MEL-5 melanoma = test system: SK-MEL-5 melanoma
UO-31 renal = test system: UO-31 renal
786-0 renal = test system: 786-0 renal
HS 578T breast = test system: HS 578T breast
SNB-19 CNS = test system: SNB-19 CNS
MDA-MB-231 breast = test system: MDA-MB-231 breast
SK-MEL-28 melanoma = test system: SK-MEL-28 melanoma
BT-549 breast = test system: BT-549 breast
UACC-62 melanoma = test system: UACC-62 melanoma
MDA-MB-435 = test system: MDA-MB-435
SK-MEL-2 melanoma = test system: SK-MEL-2 melanoma
UACC-257 melanoma = test system: UACC-257 melanoma
RXF 393 renal = test system: RXF 393 renal
CAKI-1 renal = test system: CAKI-1 renal
MCF7 breast = test system: MCF7 breast
OVCAR-4 ovarian = test system: OVCAR-4 ovarian
U251 CNS = test system: U251 CNS
NCI-H460 lung = test system: NCI-H460 lung
SK-OV-3 ovarian = test system: SK-OV-3 ovarian
NCI-H522 lung = test system: NCI-H522 lung
OVCAR-3 ovarian = test system: OVCAR-3 ovarian
M14 melanoma = test system: M14 melanoma
A549 NSCLC = test system: A549 NSCLC
MOLT-4 leukemia = test system: MOLT-4 leukemia
KM12 colon = test system: KM12 colon
MALME-3M melanoma = test system: MALME-3M melanoma
SW-620 colon = test system: SW-620 colon
K-562 leukemia = test system: K-562 leukemia
SN12C renal = test system: SN12C renal
TK-10 renal = test system: TK-10 renal
HL-60(TB) leukemia = test system: HL-60(TB) leukemia
RPMI-8226 leukemia = test system: RPMI-8226 leukemia
HOP-92 NSCLC = test system: HOP-92 NSCLC
IGROV1 ovarian = test system: IGROV1 ovarian
ACHN renal = test system: ACHN renal
PC-3 prostate = test system: PC-3 prostate
OVCAR-5 ovarian = test system: OVCAR-5 ovarian
NCI-H226 lung = test system: NCI-H226 lung

COc1ccc2c(c1)C(N)=C(Cc1ccncc1)C2=O
TGI (NCI/ADR-RES ovarian): > 100 µM | TGI (HT29 colon): > 100 µM | TGI (HOP-62 NSCLC): > 100 µM | TGI (HCT-15 colon): > 100 µM | TGI (HCT-116 colon): > 100 µM | TGI (CCRF-CEM leukemia): > 100 µM | TGI (MDA-N): > 100 µM | TGI (A498 renal): > 100 µM | TGI (SF-539 CNS): > 100 µM | TGI (LOX IMVI melanoma): > 100 µM | TGI (NCI-H23 lung): > 100 µM | TGI (COLO 205 colon): > 100 µM | TGI (T-47D breast): > 100 µM | TGI (DU-145 prostate): > 100 µM | TGI (SF-268 CNS): > 100 µM | TGI (OVCAR-8 ovarian): > 100 µM | TGI (EKVX NSCLC): > 100 µM | TGI (SF-295 CNS): > 100 µM | TGI (SNB-75 CNS): > 100 µM | TGI (SK-MEL-5 melanoma): > 100 µM | TGI (UO-31 renal): > 100 µM | TGI (786-0 renal): > 100 µM | TGI (HS 578T breast): > 100 µM | TGI (SNB-19 CNS): > 100 µM | TGI (MDA-MB-231 breast): > 100 µM | TGI (SK-MEL-28 melanoma): > 100 µM | TGI (BT-549 breast): > 100 µM | TGI (UACC-62 melanoma): > 100 µM | TGI (MDA-MB-435): > 100 µM | TGI (SK-MEL-2 melanoma): > 100 µM | TGI (UACC-257 melanoma): > 100 µM | TGI (RXF 393 renal): > 100 µM | TGI (CAKI-1 renal): > 100 µM | TGI (MCF7 breast): > 100 µM | TGI (OVCAR-4 ovarian): > 100 µM | TGI (U251 CNS): > 100 µM | TGI (NCI-H460 lung): > 100 µM | TGI (SK-OV-3 ovarian): > 100 µM | TGI (NCI-H522 lung): > 100 µM | TGI (OVCAR-3 ovarian): > 100 µM | TGI (M14 melanoma): > 100 µM | TGI (A549 NSCLC): > 100 µM | TGI (MOLT-4 leukemia): > 100 µM | TGI (KM12 colon): > 100 µM | TGI (MALME-3M melanoma): > 100 µM | TGI (SW-620 colon): > 100 µM | TGI (K-562 leukemia): > 100 µM | TGI (SN12C renal): > 100 µM | TGI (TK-10 renal): > 100 µM | TGI (HL-60(TB) leukemia): > 100 µM | TGI (RPMI-8226 leukemia): > 100 µM | TGI (HOP-92 NSCLC): > 100 µM | TGI (IGROV1 ovarian): > 100 µM | TGI (ACHN renal): > 100 µM | TGI (PC-3 prostate): > 100 µM

O=[N+]([O-])c1cccc2nc3ccccc3c(NCCCN3CCCCC3)c12
TGI (NCI/ADR-RES ovarian): 4.9 µM | TGI (HT29 colon): 0.326 µM | TGI (HOP-62 NSCLC): 0.0433 µM | TGI (HCT-15 colon): 0.109 µM | TGI (HCT-116 colon): 0.0629 µM | TGI (MDA-N): 0.0217 µM | TGI (A498 renal): < 0.0219 µM | TGI (SF-539 CNS): 0.0451 µM | TGI (LOX IMVI melanoma): 0.0562 µM | TGI (NCI-H23 lung): 0.0231 µM | TGI (COLO 205 colon): 0.0201 µM | TGI (T-47D breast): 0.182 µM | TGI (DU-145 prostate): 0.0295 µM | TGI (SF-268 CNS): 0.199 µM | TGI (OVCAR-8 ovarian): 0.118 µM | TGI (EKVX NSCLC): 0.0401 µM | TGI (SF-295 CNS): 0.0605 µM | TGI (SNB-75 CNS): 0.0497 µM | TGI (SK-MEL-5 melanoma): 0.0221 µM | TGI (786-0 renal): 0.0492 µM | TGI (HS 578T breast): 0.0966 µM | TGI (SNB-19 CNS): 0.444 µM | TGI (MDA-MB-231 breast): 0.0509 µM | TGI (BT-549 breast): 0.114 µM | TGI (UACC-62 melanoma): 0.0298 µM | TGI (OVCAR-5 ovarian): 0.0669 µM | TGI (MDA-MB-435): 0.0227 µM | TGI (SK-MEL-2 melanoma): 0.0296 µM | TGI (UACC-257 melanoma): 0.0446 µM | TGI (RXF 393 renal): 0.0246 µM | TGI (CAKI-1 renal): 0.496 µM | TGI (MCF7 breast): 0.11 µM | TGI (OVCAR-4 ovarian): 0.031 µM | TGI (U251 CNS): 0.0734 µM | TGI (NCI-H460 lung): < 0.0134 µM | TGI (SK-OV-3 ovarian): 0.1 µM | TGI (NCI-H522 lung): 0.0236 µM | TGI (OVCAR-3 ovarian): 0.026 µM | TGI (M14 melanoma): 0.0232 µM | TGI (A549 NSCLC): 0.115 µM | TGI (NCI-H226 lung): 0.0553 µM | TGI (MOLT-4 leukemia): 0.0681 µM | TGI (KM12 colon): 0.112 µM | TGI (MALME-3M melanoma): 0.038 µM | TGI (SW-620 colon): 5.89 µM | TGI (K-562 leukemia): 1.12 µM | TGI (SN12C renal): 0.0443 µM | TGI (TK-10 renal): 0.0712 µM | TGI (HL-60(TB) leukemia): 0.511 µM | TGI (RPMI-8226 leukemia): 0.0611 µM | TGI (HOP-92 NSCLC): 0.0434 µM | TGI (IGROV1 ovarian): 0.0758 µM | TGI (ACHN renal): 0.0472 µM | TGI (PC-3 prostate): 0.0305 µM

— PubChem BioAssay (NCI)
